{"source": "patent US20230109839A1", "about": "“THERAPEUTIC AGENT FOR TAUOPATHIES” (SUMITOMO PHARMA CO., LTD., priority 2020, published 2023)", "format_in_all_cases": "in vivo, mouse", "key": {"rTg4510 mice": {"test_system": "rTg4510 mice", "assay": "Cerebral atrophy in rTg4510 mice, MRI volume of brain regions (Test 5)", "conditions": "for lateral ventricular volume (mm^3): 4.5 mg/g-food, with ABT 1 mg/g-food", "from_the_text": "(§1) Test 5: Evaluation of Intracerebral Tau Aggregate Accumulation and Cerebral Atrophy Using rTg4510 Mice\n(§2) This test is a test to evaluate the effects of the compounds on intracerebral tau aggregate accumulation and cerebral atrophy. The rTg4510 mice overexpress the human-type FTDP-17 mutant tau in the forebrain, and month-age-dependent intracerebral tau aggregate accumulation and cerebral atrophy are observed. The rTg4510 mice used herein were produced by mating Tg (tauP301L) 4510 mice (Stock No. 015815) and CaMKII-tTA mice (Stock No. 007004) purchased from The Jackson Laboratory and breeding them.\n(§3) The test compound was administered as a mixed diet to rTg4510 mice from the age of 4 months, and PET scan and MRI were performed at the ages of 4, 6 and 8 months to quantitatively evaluate the amount of the intracerebral tau aggregate accumulated and cerebral atrophy. The PET scan was performed using MicroPET Focus 220 of Siemens Medical Solutions (0.851 mm thick (intercenter) 95 slices, 19.0 cm axial field of view (FOV), and 7.6 cm intra-section FOV). The administration of radioactive compound [^18F] PM-PBB3 (precursor obtained from Aprinoia) and the PET scan were performed in dimly lit after the mice was treated with 1.5% isoflurane anesthesia to avoid […] of the radioactive compound. The emission scan was performed for 60 minutes immediately after the intravenous administration of [^18F] PM-PBB3 (1 mCi) (3D list mode, energy window: 350-750 keV). Then, the list mode data sorted into 3D synograms were converted into 2D synograms by Fourier-rebinding (frames: 4×1, 8×2 and 8×5 minutes). The dynamic image for 60 minutes after the administration of [^18F] PM-PBB3 was reconstructed by a filter-corrected back projection with a 0.5 mm Hanning filter. Regions of interest (ROI) were set in multiple brain regions using PMOD image analysis software (PMOD Technology) with reference to the MRI templates and the PET reconstructed images. Tau aggregate accumulation was evaluated by calculating SUVR (Standardized uptake value ratio) with the cerebellum as a reference region, based on the added average of dynamic images from 40 minutes to 60 minutes.\nThe evaluation of cerebral atrophy was performed with horizontal superconducting magnet type MRI (7T, inner diameter 400 mm, self-shielding type, zero boil-off type). The imaging was performed under isoflurane anesthesia while maintaining the rectal temperature at 36.5±0.5° C. After Tripilot acquisition, the brain images were acquired by TurboRARE T2 emphasis sequence (TR: 4200 ms, TE: 36 ms, Fat-Sup: on, NA: 4, RARE factor: 8, scan time: 14 min) (FOV read: 25.6 mm, FOV P1: 14.5 mm, Slice thickness: 0.5 mm, number of slices: 28). The ROI of each brain region was set in each of the acquired slices, and the volume of the brain region was calculated by summing the ROI areas of all the slices to evaluate the effect of the test compound."}, "[1]": {"test_system": "intracerebral tau aggregate accumulation", "assay": "Intracerebral tau aggregate accumulation in rTg4510 mice, tau PET with [18F] PM-PBB3, SUVR (Test 5)", "conditions": "for SUVR(cerebellum ratio) cerebral neocortex / SUVR(cerebellum ratio) hippocampus: 4.5 mg/g-food, with ABT 1 mg/g-food", "from_the_text": "as §1, §2, §3"}, "[2]": {"test_system": "phosphorylated tau oligomer", "assay": "Evaluation of phosphorylated tau oligomers in brain of APP-Tg mice, Western blotting (Test 4)", "conditions": "for Reducing effect of phosphorylated tau oligomer: 7-10 days, with ABT 1 mg/g-food", "experimental": "Test 4: Evaluation of Phosphorylated Tau Oligomers Using APP-Tg Mice\nThis test is a test to quantify the oligomer of phosphorylated tau in the brain to evaluate the action of a compound. […] The APP-Tg mice used herein were prepared by the method described in Test 3.\nThe test compound administered with food to APP-Tg mice for 7-10 days. At this time, in order to increase the blood concentration of the test compound, ABT was used in combination with a mixed diet of 1 mg/g-food depending on the compound. After the administration, the brain was collected, and the protein is extracted from the collected brain using TBS (Tris Buffered Saline) or sarcosyl, and then SDS-PAGE (sodium dodecyl sulfate-polyacrylamide gel electrophoresis) of the soluble or insoluble fraction was performed. After that, Western blotting was performed using an anti-oligomerized tau antibody (Anti-Tau, oligomeric, clone TOMA-1), and the effect of the test compound was evaluated by quantifying the band amount of the phosphorylated tau oligomer.\nThe reducing effect of phosphorylated tau oligomer was calculated by the following formula, and from the calculated values, the results were defined as follows: 0-25%: +, 25-50%: ++, 50-75%: +++, and 75-100%: ++++. The significant difference from the vehicle-administered group was determined using the Student t-test. For the band amount, the value corrected by the β-actin band amount was used.\nReducing effect of phosphorylated tau oligomer={(band amount of oligomerized tau in vehicle-administered group−band amount of oligomerized tau in test compound-administered group)/band amount of oligomerized tau in vehicle-administered group}×100"}, "[3]": {"conditions": "mixed diet 4.5 mg/g-food with ABT 1 mg/g-food"}}, "note": "Entries after “also recorded” stand apart in the source; their conditions may differ.", "data": [{"smiles": "N#Cc1ccc(NC(=O)Cn2nc(N3CCC4(CC4)C(F)(F)C3)ccc2=O)cn1", "note": "[Example 560, N-(6-cyanopyridin-3-yl)-2-[3-(4,4-difluoro-6-azaspiro[2.5]octan-6-yl)-6-oxopyridazin-1(6H)-yl]acetamide]", "values": [{"measurement": "lateral ventricular volume (mm^3)", "setting": "rTg4510 mice; 4 month old", "result": "0.47 ± 0.06", "unit": "mm^3"}, {"measurement": "lateral ventricular volume (mm^3)", "setting": "rTg4510 mice; 6 month old", "result": "0.34 ± 0.10", "unit": "mm^3"}, {"measurement": "lateral ventricular volume (mm^3)", "setting": "rTg4510 mice; 8 month old", "result": "0.71 ± 0.35", "unit": "mm^3"}, {"measurement": "age-dependent increase in lateral ventricular volume", "setting": "rTg4510 mice; [3]", "result": "suppressed"}, {"measurement": "SUVR(cerebellum ratio) cerebral neocortex", "setting": "[1]; 4 month old", "result": "1.026 ± 0.037"}, {"measurement": "SUVR(cerebellum ratio) hippocampus", "setting": "[1]; 4 month old", "result": "1.103 ± 0.036"}, {"measurement": "SUVR(cerebellum ratio) cerebral neocortex", "setting": "[1]; 6 month old", "result": "1.224 ± 0.060"}, {"measurement": "SUVR(cerebellum ratio) hippocampus", "setting": "[1]; 6 month old", "result": "1.328 ± 0.078"}, {"measurement": "SUVR(cerebellum ratio) cerebral neocortex", "setting": "[1]; 8 month old", "result": "1.351 ± 0.049"}, {"measurement": "SUVR(cerebellum ratio) hippocampus", "setting": "[1]; 8 month old", "result": "1.468 ± 0.056"}, {"measurement": "age-dependent increase in SUVR in the cerebral neocortex and hippocampus (FIG. 7)", "setting": "[1]; [3]", "result": "tended to be suppressed"}, {"measurement": "increase in PET tracer accumulation in each brain region with aging (average SUVR images, FIG. 6)", "setting": "[1]; mixed diet 4.5 mg/g-food with ABT 1 mg/g-food, ages 4, 6 and 8 months", "result": "suppressed"}, {"measurement": "Reducing effect of phosphorylated tau oligomer", "setting": "[2]; dose 0.5 mg/g-food", "result": "++ (25-50%: ++)"}, {"measurement": "Reducing effect of phosphorylated tau oligomer", "setting": "[2]; dose 4.5 mg/g-food", "result": "++++ (75-100%: ++++)"}, {"measurement": "reducing effect of tau oligomer", "setting": "[2]; with food for 7-10 days, ABT 1 mg/g-food depending on the compound, brain, anti-oligomerized tau antibody TOMA-1", "result": "some reducing effect of tau oligomer; also recorded: strong reducing effect of tau oligomer"}]}]}
